In US9745305B2, “Modulators of methyl modifying enzymes, compositions and uses thereof” (Constellation Pharmaceuticals, Inc., priority 2013, dated 2017) one finds IC50 and EC50 data, which are given here for seven compounds.

Test [1] addresses EZH2 (Homo sapiens, UniProt Q15910). Put plainly: EZH2 Assay (3H SAM methyl transfer, rPRC2, FlashPlate). It is filed as biochemical. To be noted: rPRC2, biotinylated oligonucleosomes, 0.2 μM 3H SAM, 2 nM EZH2. On the procedure: (§1) EZH2 Assay: Assays were carried out by mixing rPRC2 together with biotinylated oligonucleosome substrates in the presence of the radio-labeled enzyme co-factor, S-adenosyl-L-methionine (^3H SAM) (Perkin Elmer) and monitoring the enzymatically mediated transfer of tritiated methyl groups from ^3H SAM to histone lysine residues. The amount of resulting tritiated methyl histone product was measured by first capturing the biotinylated oligonucleosomes in streptavidin (SAV) coated FlashPlates (Perkin Elmer), followed by a wash step to remove unreacted ^3H SAM, and then counting on a TopCount NXT 384 well plate scintillation counter (Perkin Elmer). The final assay conditions for EZH2 were as follows: 50 mM Tris Buffer pH 8.5, 1 mM DTT, 69 μM Brij-35 detergent, 5.0 mM MgCl2, 0.1 mg/mL BSA, 0.2 μM ^3H SAM, 0.2 μM biotinylated oligonucleosomes, 3.6 μM H3K27me3 peptide and 2 nM EZH2.
(§2) Compound IC50 measurements were obtained as follows: Compounds were first dissolved in 100% DMSO as 10 mM stock solutions. Ten point dose response curves were generated by dispensing varying amounts of the 10 mM compound solution in 10 wells of the 384 well plate (Echo; Labcyte), pure DMSO was then used to backfill the wells to insure all wells have the same amount of DMSO. A 12.5 μL volume of the HMT enzyme, H3K27me3 peptide and oligonucleosome substrate in assay buffer was added to each well of the assay plate using a Multidrop Combi (ThermoFisher). Compounds were pre-incubated with the enzyme for 20 min, followed by initiation of the methyltransferase reaction by addition of 12.5 μL of ^3H SAM in assay buffer (final volume=25 μL). The final concentrations of compounds ranged from a top default concentration of 80 μM down to 0.16 μM in ten 2-fold dilution steps. Reactions were carried out for 60 minutes and quenched with 20 μL per well of 1.96 mM SAH, 50 mM Tris pH 8.5, 200 mM EDTA. Stopped reactions were transferred to SAV coated Flashplates (Perkin Elmer), incubated for 120 min, washed with a plate washer, and then read on the TopCount NXT (1.0 min/well) to measure the amount of methyl histone product formed during the reaction. The amount of methyl histone product was compared with the amount of product formed in the 0% and 100% inhibition control wells allowing the calculation of % Inhibition in the presence of the individual compounds at various concentrations. IC50's were computed using a 4 parameter fit non-linear curve fitting software package (XLFIT, part of the database package, ActivityBase (IDBS)) where the four parameters were IC50, Hill slope, pre-transitional baseline (0% INH), and post-transitional baseline (100% INH); with the latter two parameters being fixed to zero and 100%, respectively, by default.

Test [2] has as its target Y641N EZH2 (Homo sapiens, UniProt Q15910, Y641N). The test is described as follows: Assay for Y641N EZH2 (as the EZH2 assay, H3K27Me2 oligonucleosomes as substrate). It is filed as biochemical. To be noted: Y641N EZH2 mutant, reconstituted H3K27Me2 oligonucleosomes as substrate. Here is the method:
as §1, §2
Assay for Y641N EZH2 was performed as above using reconstituted H3K27Me2 oligonucleosomes as substrate.

Test [3] concerns H3K27me3 mark in Hela cells expressing wild type EZH2. The test is described as follows: H3K27me3 MSD Hela Assay. It is filed as cell-based. To be noted: read-out: H3K27me3_MSD_HeLa (EC50). Here is the method:
H3K27me3 MSD Hela Assay. Trypsinized HeLa cells were counted and diluted in 10% DMEM (Life Technologies, Cat. #10569) to 5000 cells/75 μL. Seventy-five μL of cells were place in each well of a 96-well flat-bottomed plate and incubated at 37° C. for 4 hours. Twenty-five μL of test compound (at various concentrations) was added to the cells and incubation continued at 37° C. for 96 hours. Media was then removed and the cells rinsed once with ice cold PBS. Forty μL of ice-cold MSD Buffer AT (10 mM HEPES, pH 7.9, 5 mM MgCl2, 0.25M sucrose, Benzonase (1:10000), 1% Triton X-100 supplemented with fresh 1× Protease Inhibitor cocktail and 1 mM 4-(2-Aminoethyl)benzenesulfonyl fluoride hydrochloride (AEBSF)) was added to each well and the plates placed on ice for 30 minutes. Ten μL of 5M NaCl was then added to each well and incubation on ice continued for another 15 minutes. The material in each well was suspended pipetting up and down and then transferred to a new 96 well plate. The emptied wells were rinsed with 150 uL ice-cold 20 mM Tris pH 7.5, 1 mM EDTA, 1 mM EGTA, supplemented with fresh 1× Protease Inhibitor cocktail and 1 mM AEBSF (“NO salt NO detergent buffer) and transferred to the respective wells in the new plate. Three hundred μL of NO Salt NO detergent buffer was then added to each well of lysates and the plates frozen at −80° C.
On the same day, an appropriate number of MSD standard bind 96-well plates were coated with 30 μL/well of total H3 capture antibody (Millipore, Cat # MAB3422) at 1 μg/mL concentration in PBS. The antibody solution was evenly distributed first by tapping gently on the sides of the plates and then by shaking the plates for a few minutes at 1000 rpm. Antibody coated plates were stored at 4° C. overnight.
The next day the lysates are thawed to RT. The antibody coated MSD plates are washed 3× with TBS-T (Tris-buffered saline (Fisher Scientific, Cat #BP2471-1)+0.2% Tween-20). One-hundred fifty μL of 5% Blocker A in TBS-T is added to each well. The wells are covered and shaken on a shaker at RT for one hour. The Blocker A step is repeated a second time. After removing the blocker, 25 μL of cell lysate is transferred into each antibody coated well. The plates are shaken for 2 hours at RT, the lysate removed and the plates again washed with Blocker A in TBS-T. Twenty-five μL of appropriate freshly prepared antibody mix (including both primary and secondary antibodies) is added to each well and the plates shaken for 1 hour at RT.
Both H3 antibodies were obtained from Cell Signalling (Cat #s 4499 and 9733). The goat anti-rabbit antibody was obtained from Meso-Scale Discovery (Cat #R32AB-1).
The antibody mix was then removed and the wells washed with Blocker A. One hundred-fifty μL of freshly prepared 1×MSD Read Buffer (Meso-Scale Discovery; Cat #R927C-2) was then added to each well and the plates read on a MSD Sector 2400 Plate Reader.
(§3) Data was analyzed using Assay Assistant (Constellation Pharmaceuticals In-house product) and Activity Base (IDBS Ltd, Surrey, UK) template. Data files were imported to Assay Assistant and assay conditions were specified. A unique Analysis ID was created and the data files exported to Activity Base. An analysis template was created on Activity Base to measure dose-dependent inhibition of H3K27me3 mark and cell viability respectively. Readout of DMSO wells were used to normalize the data. Resulting curves were fitted using Activity base software Model 205 (IDBS Ltd, Surrey, UK). The data was checked for quality, validated and integrated in excel format using SARview (IDBS Ltd, Surrey, UK).

For test [4] the test system is unchanged. The test is described as follows: H3K27me3 Alpha Hela Assay (AlphaLISA). To be noted: Homo sapiens, 72 hrs, read-out: H3K27me3_Alpha_HeLa (EC50). It is filed as cell-based. On the procedure:
H3K27me3 Alpha Hela Assay (AlphaLISA). Ten different doses of each test compound (in a series of 3-fold dilutions) were plated in duplicate 384-well tissue culture treated plates (Catalog #781080; Greiner Bio One; Monroe, N.C.). Hela cells grown in culture were trypsinized and counted using a Countess® cell counter (Catalog # C10281; Life Technologies, Grand Island, N.Y.). Cell were diluted to 67,000 cells per mL in 10% DMEM (Catalog #10569-010 Life Technologies, Grand Island, N.Y.) and 15 μL (1,000 cells) were plated into each well using the Biotek MicroFlo™ Select Dispenser (BioTek Instruments, Inc. Vermont, USA),) of the 384-well plate. Plates were incubated at 37° C./5% CO2 for 72 hrs. One of the duplicate plates was processed for HeLa assay and the other for viability.
To the plate processed for AlphaLISA was added 5 μL per well Cell-Histone Lysis buffer (1×) (Catalog # AL009F1 Perkin Elmer; Waltham, Mass.) and the plate was incubated at RT for 30 minutes on a plate shaker with low speed (Model#4625-Q Thermo Scientific; Waltham, Mass.). Then, 10 μL per well Histone Extraction buffer (catalog # AL009F2; Perkin Elmer; Waltham, Mass.) was added and the plate further incubated at RT for 20 min on plate shaker with low speed. To each well was then added 10 μL per well of a 5× mix of anti-K27me3 acceptor beads plus Biotinylated anti-Histone H3 (C-ter) Antibody (diluted to 3 nM final) (Catalog #AL118 Perkin Elmer; Waltham, Mass.). Dilution of the acceptor beads and then anti-Histone H3 was with 1× Histone Detection buffer (Catalog # AL009F3 Perkin Elmer; Waltham, Mass.) which was produced diluted from the 10× stock provided. The plate was sealed with an aluminum plate sealer and incubated at 23° C. for 60 min. We then added 10 μL 5× solution of Streptavidin Donor beads (Catalog #6760002 Perkin Elmer; Waltham, Mass.) (20 μg/mL final in 1× Histone Detection Buffer), sealed the plate with Aluminum plate sealer and incubated at 23° C. for 30 min. The plates were then read using an EnVision-Alpha Reader (model #2104 Perkin Elmer; Waltham, Mass.).
as §3, with “Data from both assays was analyzed” for “Data was analyzed”
(Bead proximity is the source of the signal in Alpha formats.)

Chain of EZH2 (Q15910 whole entry): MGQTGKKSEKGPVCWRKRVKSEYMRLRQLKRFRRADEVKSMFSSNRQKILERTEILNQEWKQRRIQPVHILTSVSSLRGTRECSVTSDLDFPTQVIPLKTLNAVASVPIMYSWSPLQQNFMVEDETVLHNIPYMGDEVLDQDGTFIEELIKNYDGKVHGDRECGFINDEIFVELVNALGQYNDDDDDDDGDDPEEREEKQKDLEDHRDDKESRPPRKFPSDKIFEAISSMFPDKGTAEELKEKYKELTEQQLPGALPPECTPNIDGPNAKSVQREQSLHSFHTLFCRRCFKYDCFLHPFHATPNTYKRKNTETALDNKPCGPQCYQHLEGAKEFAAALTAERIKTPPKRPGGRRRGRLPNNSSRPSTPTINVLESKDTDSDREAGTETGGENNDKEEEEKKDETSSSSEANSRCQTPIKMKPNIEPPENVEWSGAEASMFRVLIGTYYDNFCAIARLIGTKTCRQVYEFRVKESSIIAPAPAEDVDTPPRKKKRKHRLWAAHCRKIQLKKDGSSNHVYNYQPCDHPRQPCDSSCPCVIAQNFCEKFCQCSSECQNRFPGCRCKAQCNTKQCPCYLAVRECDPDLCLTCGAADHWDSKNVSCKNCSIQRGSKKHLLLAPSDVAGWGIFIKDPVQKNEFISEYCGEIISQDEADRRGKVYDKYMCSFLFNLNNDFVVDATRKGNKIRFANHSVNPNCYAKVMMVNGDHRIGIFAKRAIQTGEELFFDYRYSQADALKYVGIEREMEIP
Chain of EZH2 (O75530 whole entry partner): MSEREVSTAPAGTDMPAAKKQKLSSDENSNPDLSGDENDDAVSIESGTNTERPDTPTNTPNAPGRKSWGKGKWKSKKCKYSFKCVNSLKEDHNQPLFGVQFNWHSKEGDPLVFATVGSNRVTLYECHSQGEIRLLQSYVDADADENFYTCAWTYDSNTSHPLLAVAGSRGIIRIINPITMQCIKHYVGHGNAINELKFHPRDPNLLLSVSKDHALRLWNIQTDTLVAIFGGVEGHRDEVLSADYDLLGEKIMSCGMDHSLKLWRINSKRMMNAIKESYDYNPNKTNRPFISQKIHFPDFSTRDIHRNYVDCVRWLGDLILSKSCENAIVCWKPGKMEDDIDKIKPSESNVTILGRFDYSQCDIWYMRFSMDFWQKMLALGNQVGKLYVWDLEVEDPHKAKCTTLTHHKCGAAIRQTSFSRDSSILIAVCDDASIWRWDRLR
Chain of EZH2 (Q15022 whole entry partner): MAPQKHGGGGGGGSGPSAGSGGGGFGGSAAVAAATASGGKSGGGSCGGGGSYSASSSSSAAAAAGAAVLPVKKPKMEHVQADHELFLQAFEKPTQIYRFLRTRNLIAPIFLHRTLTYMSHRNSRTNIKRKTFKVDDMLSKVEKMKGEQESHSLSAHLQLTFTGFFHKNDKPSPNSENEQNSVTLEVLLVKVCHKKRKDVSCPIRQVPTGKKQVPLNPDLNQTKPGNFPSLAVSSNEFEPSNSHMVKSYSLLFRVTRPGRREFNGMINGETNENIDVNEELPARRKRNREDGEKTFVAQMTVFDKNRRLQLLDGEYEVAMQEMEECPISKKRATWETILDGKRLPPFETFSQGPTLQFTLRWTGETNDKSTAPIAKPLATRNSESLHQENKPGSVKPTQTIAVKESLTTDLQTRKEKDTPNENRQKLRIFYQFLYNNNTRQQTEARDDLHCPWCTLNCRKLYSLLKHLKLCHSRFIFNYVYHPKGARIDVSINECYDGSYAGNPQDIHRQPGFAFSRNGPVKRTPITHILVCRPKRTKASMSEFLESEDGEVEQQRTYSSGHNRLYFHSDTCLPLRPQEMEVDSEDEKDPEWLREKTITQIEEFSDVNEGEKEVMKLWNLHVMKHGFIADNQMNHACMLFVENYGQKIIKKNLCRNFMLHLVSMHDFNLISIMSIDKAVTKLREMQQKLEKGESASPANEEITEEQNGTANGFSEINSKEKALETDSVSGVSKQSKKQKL
Chain of Y641N EZH2 (Q15910 whole entry Y641N): as the sequence (Q15910 whole entry) above, with Y641N counted along it
Chain of Y641N EZH2 (O75530 whole entry partner): as the sequence (O75530 whole entry partner) above
Chain of Y641N EZH2 (Q15022 whole entry partner): as the sequence (Q15022 whole entry partner) above

For `COc1cc(C)[nH]c(=O)c1CNC(=O)c1c(C)c(C(C)C2CC2)n2ncccc12` (racemic) [Compound 102, (±)-7-(1-cyclopropylethyl)-N-((4-methoxy-6-methyl-2-oxo-1,2-dihydropyridin-3-yl)methyl)-6-methylpyrrolo[1,2-b]pyridazine-5-carboxamide], the IC50 in test [1] and in test [2] was less than 100 nM each time. Also, the EC50 (in general, the concentration that produces a half-maximal response) in test [3] (Homo sapiens, HeLa, 96 h) lay in the range of 400 to 2000 nM.
Consider `COc1cc(C)[nH]c(=O)c1CNC(=O)c1c(C)c(C(C)N(C)S(C)(=O)=O)n2ncccc12` (racemic) [Compound 103, (±)-N-((4-methoxy-6-methyl-2-oxo-1,2-dihydropyridin-3-yl)methyl)-6-methyl-7-(1-(N-methylmethylsulfonamido)ethyl)pyrrolo[1,2-b]pyridazine-5-carboxamide], for which the values for the IC50 in test [1] and in test [2] were less than 100 nM and 100 to 1000 nM, respectively. In addition, the EC50 in test [3] (Homo sapiens, HeLa, 96 h) lay in the range of 400 to 2000 nM.
As to `COc1cc(C)[nH]c(=O)c1CNC(=O)c1c(C)c(C(C)c2ccccc2)n2ncccc12` (single isomer, unassigned) [Compound 106, (R or S)-N-((4-methoxy-6-methyl-2-oxo-1,2-dihydropyridin-3-yl)methyl)-6-methyl-7-(1-phenylethyl)pyrrolo[1,2-b]pyridazine-5-carboxamide], in test [3] (96 hours), the EC50 is less than 400 nM.
As for `COc1cc(C)[nH]c(=O)c1CNC(=O)c1c(C)c(C(C)C2CCN(C(=O)C(F)(F)F)CC2)n2ncccc12` (stereo not shown) [Compound 139, N-((4-methoxy-6-methyl-2-oxo-1,2-dihydropyridin-3-yl)methyl)-6-methyl-7-(1-(1-(2,2,2-trifluoroacetyl)piperidin-4-yl)ethyl)pyrrolo[1,2-b]pyridazine-5-carboxamide], the IC50 in test [1] and in test [2] was less than 100 nM in each case. Further, in test [4], the EC50 was less than 400 nM.
Turning to `COc1cc(C)[nH]c(=O)c1CNC(=O)c1c(C)c(C(C)C2CCN(CC(C)(F)F)CC2)n2ccncc12` (stereo not shown) [Compound 140, 6-(1-(1-(2,2-difluoropropyl)piperidin-4-yl)ethyl)-N-((4-methoxy-6-methyl-2-oxo-1,2-dihydropyridin-3-yl)methyl)-7-methylpyrrolo[1,2-a]pyrazine-8-carboxamide], the IC50 – broadly, the concentration that gives 50% inhibition – was less than 100 nM in test [1] and 1000 to 10000 nM in test [2]. In addition, the EC50 in test [4] was less than 400 nM.
As to `COc1cc(C)[nH]c(=O)c1CNC(=O)c1c(Cl)c(C(C)C2CCN(CC(C)(C)O)CC2)n2ncccc12` (stereo not shown) [Compound 142, 6-chloro-7-(1-(1-(2-hydroxy-2-methylpropyl)piperidin-4-yl)ethyl)-N-((4-methoxy-6-methyl-2-oxo-1,2-dihydropyridin-3-yl)methyl)pyrrolo[1,2-b]pyridazine-5-carboxamide], the IC50 in test [1] and in test [2] was less than 100 nM each time. In addition, the EC50 in test [4] was less than 400 nM.
Consider `COc1cc(C)[nH]c(=O)c1CNC(=O)c1c(C)c(C(C)C2CCN(CC(C)(C)F)CC2)n2ncccc12` (stereo not shown) [Compound 144, 7-(1-(1-(2-fluoro-2-methylpropyl)piperidin-4-yl)ethyl)-N-((4-methoxy-6-methyl-2-oxo-1,2-dihydropyridin-3-yl)methyl)-6-methylpyrrolo[1,2-b]pyridazine-5-carboxamide], for which the IC50 in test [1] is less than 100 nM; in test [2], 100 to 1000 nM. Further, the EC50 in test [4] was less than 400 nM.
